Measurements taken from ChEMBL document CHEMBL1138190, “Synthesis and antibacterial activity of novel C12 vinyl ketolides” (J Med Chem, 2006).
In brackets after ≈: the same amount, converted by molar mass.

Columns and labels:
Assay type in all cases: functional
Haemophilus influenzae [1] = experiment: Antibacterial activity against Haemophilus influenzae 2762
Staphylococcus aureus [2] = experiment: Antibacterial activity against Staphylococcus aureus 29213
Staphylococcus aureus [3] = experiment: Antibacterial activity against Staphylococcus aureus 33591
[4] = tested on: Staphylococcus epidermidis; experiment: Antibacterial activity against Staphylococcus epidermidis 14990
[5] = tested on: Staphylococcus epidermidis; experiment: Antibacterial activity against Staphylococcus epidermidis f50654
Enterococcus faecalis [6] = experiment: Antibacterial activity against Enterococcus faecalis 29212
Enterococcus faecalis [7] = experiment: Antibacterial activity against Enterococcus faecalis bc11148-2
Streptococcus pyogenes = experiment: Antibacterial activity against Streptococcus pyogenes 8668
Streptococcus pneumoniae [8] = experiment: Antibacterial activity against Streptococcus pneumoniae 49619
Streptococcus pneumoniae [9] = experiment: Antibacterial activity against Streptococcus pneumoniae 297-749
Streptococcus pneumoniae [10] = experiment: Antibacterial activity against Streptococcus pneumoniae 280-962
Streptococcus pneumoniae [11] = experiment: Antibacterial activity against Streptococcus pneumoniae Erm 6849
Streptococcus pneumoniae [12] = experiment: Antibacterial activity against Streptococcus pneumoniae Mef 5654
Streptococcus pneumoniae [13] = experiment: Antibacterial activity against Streptococcus pneumoniae Mef S 3427
Haemophilus influenzae [14] = experiment: Antibacterial activity against Haemophilus influenzae 49247

C=C[C@]12OC(=O)N(CCCCn3cnc(-c4cnccn4)c3)[C@@H]1[C@@H](C)C(=O)[C@H](C)C[C@@](C)(OC)[C@H](O[C@@H]1O[C@H](C)C[C@H](N(C)C)[C@H]1O)[C@@H](C)C(=O)[C@@H](C)C(=O)O[C@@H]2CC
MIC (Haemophilus influenzae [1]): 1.56 µg/mL (≈ 1.89 µM)
MIC (Staphylococcus aureus [2]): 0.2 µg/mL (≈ 0.242 µM)
MIC (Staphylococcus aureus [3]): > 50 µg/mL
MIC [4]: 0.1 µg/mL (≈ 0.121 µM)
MIC [5]: 0.2 µg/mL (≈ 0.242 µM)
MIC (Enterococcus faecalis [6]): 0.1 µg/mL (≈ 0.121 µM)
MIC (Enterococcus faecalis [7]): 0.4 µg/mL (≈ 0.485 µM)
MIC (Streptococcus pyogenes): ≤ 0.05 µg/mL
MIC (Streptococcus pneumoniae [8]): ≤ 0.05 µg/mL
MIC (Streptococcus pneumoniae [9]): ≤ 0.05 µg/mL
MIC (Streptococcus pneumoniae [10]): ≤ 0.05 µg/mL
MIC (Streptococcus pneumoniae [11]): 0.2 µg/mL (≈ 0.242 µM)
MIC (Streptococcus pneumoniae [12]): 0.78 µg/mL (≈ 0.945 µM)
MIC (Streptococcus pneumoniae [13]): 0.1 µg/mL (≈ 0.121 µM)
MIC (Haemophilus influenzae [14]): 3.13 µg/mL (≈ 3.79 µM)

C=C[C@]12OC(=O)N(CCN(C)Cc3cccc(-c4cccnc4)c3)[C@@H]1[C@@H](C)C(=O)[C@H](C)C[C@@](C)(OC)[C@H](O[C@@H]1O[C@H](C)C[C@H](N(C)C)[C@H]1O)[C@@H](C)C(=O)[C@@H](C)C(=O)O[C@@H]2CC
MIC (Haemophilus influenzae [1]): 1.56 µg/mL (≈ 1.84 µM)
MIC (Staphylococcus aureus [2]): 0.2 µg/mL (≈ 0.236 µM)
MIC (Staphylococcus aureus [3]): > 50 µg/mL
MIC [4]: 0.2 µg/mL (≈ 0.236 µM)
MIC [5]: 0.1 µg/mL (≈ 0.118 µM)
MIC (Enterococcus faecalis [6]): 0.1 µg/mL (≈ 0.118 µM)
MIC (Enterococcus faecalis [7]): 0.1 µg/mL (≈ 0.118 µM)
MIC (Streptococcus pyogenes): ≤ 0.05 µg/mL
MIC (Streptococcus pneumoniae [8]): ≤ 0.05 µg/mL
MIC (Streptococcus pneumoniae [9]): ≤ 0.05 µg/mL
MIC (Streptococcus pneumoniae [10]): ≤ 0.05 µg/mL
MIC (Streptococcus pneumoniae [11]): 0.1 µg/mL (≈ 0.118 µM)
MIC (Streptococcus pneumoniae [12]): 0.78 µg/mL (≈ 0.919 µM)
MIC (Streptococcus pneumoniae [13]): 0.1 µg/mL (≈ 0.118 µM)
MIC (Haemophilus influenzae [14]): 6.25 µg/mL (≈ 7.36 µM)

C=C[C@]12OC(=O)N(CCCCn3cnc(-c4cnc(C)cn4)c3)[C@@H]1[C@@H](C)C(=O)[C@H](C)C[C@@](C)(OC)[C@H](O[C@@H]1O[C@H](C)C[C@H](N(C)C)[C@H]1O)[C@@H](C)C(=O)[C@@H](C)C(=O)O[C@@H]2CC
MIC (Haemophilus influenzae [1]): 0.78 µg/mL (≈ 0.93 µM)
MIC (Staphylococcus aureus [2]): 0.1 µg/mL (≈ 0.119 µM)
MIC (Staphylococcus aureus [3]): > 50 µg/mL
MIC [4]: 0.2 µg/mL (≈ 0.238 µM)
MIC [5]: 0.1 µg/mL (≈ 0.119 µM)
MIC (Enterococcus faecalis [6]): 0.1 µg/mL (≈ 0.119 µM)
MIC (Enterococcus faecalis [7]): 0.78 µg/mL (≈ 0.93 µM)
MIC (Streptococcus pyogenes): ≤ 0.05 µg/mL
MIC (Streptococcus pneumoniae [8]): ≤ 0.05 µg/mL
MIC (Streptococcus pneumoniae [9]): ≤ 0.05 µg/mL
MIC (Streptococcus pneumoniae [10]): ≤ 0.05 µg/mL
MIC (Streptococcus pneumoniae [11]): 0.2 µg/mL (≈ 0.238 µM)
MIC (Streptococcus pneumoniae [12]): 0.78 µg/mL (≈ 0.93 µM)
MIC (Streptococcus pneumoniae [13]): 0.2 µg/mL (≈ 0.238 µM)
MIC (Haemophilus influenzae [14]): 3.13 µg/mL (≈ 3.73 µM)

C=C[C@]12OC(=O)N(CCCCn3cnc(-c4ccc(OC)nc4)c3)[C@@H]1[C@@H](C)C(=O)[C@H](C)C[C@@](C)(OC)[C@H](O[C@@H]1O[C@H](C)C[C@H](N(C)C)[C@H]1O)[C@@H](C)C(=O)[C@@H](C)C(=O)O[C@@H]2CC
MIC (Haemophilus influenzae [1]): 0.78 µg/mL (≈ 0.913 µM)
MIC (Staphylococcus aureus [2]): 0.1 µg/mL (≈ 0.117 µM)
MIC (Staphylococcus aureus [3]): > 50 µg/mL
MIC [4]: 0.2 µg/mL (≈ 0.234 µM)
MIC [5]: 0.1 µg/mL (≈ 0.117 µM)
MIC (Enterococcus faecalis [6]): ≤ 0.05 µg/mL
MIC (Enterococcus faecalis [7]): 0.78 µg/mL (≈ 0.913 µM)
MIC (Streptococcus pyogenes): ≤ 0.05 µg/mL
MIC (Streptococcus pneumoniae [8]): ≤ 0.05 µg/mL
MIC (Streptococcus pneumoniae [9]): ≤ 0.05 µg/mL
MIC (Streptococcus pneumoniae [10]): ≤ 0.05 µg/mL
MIC (Streptococcus pneumoniae [11]): 0.4 µg/mL (≈ 0.468 µM)
MIC (Streptococcus pneumoniae [12]): 0.78 µg/mL (≈ 0.913 µM)
MIC (Streptococcus pneumoniae [13]): 0.1 µg/mL (≈ 0.117 µM)
MIC (Haemophilus influenzae [14]): 6.25 µg/mL (≈ 7.32 µM)

C=C[C@]12OC(=O)N(CCCCn3ccc4nc(C(C)=O)ccc43)[C@@H]1[C@@H](C)C(=O)[C@H](C)C[C@@](C)(OC)[C@H](O[C@@H]1O[C@H](C)C[C@H](N(C)C)[C@H]1O)[C@@H](C)C(=O)[C@@H](C)C(=O)O[C@@H]2CC
MIC (Haemophilus influenzae [1]): 0.2 µg/mL (≈ 0.238 µM)
MIC (Staphylococcus aureus [2]): 0.1 µg/mL (≈ 0.119 µM)
MIC (Staphylococcus aureus [3]): > 50 µg/mL
MIC [4]: 0.1 µg/mL (≈ 0.119 µM)
MIC [5]: 0.1 µg/mL (≈ 0.119 µM)
MIC (Enterococcus faecalis [6]): 0.2 µg/mL (≈ 0.238 µM)
MIC (Enterococcus faecalis [7]): 6.25 µg/mL (≈ 7.45 µM)
MIC (Streptococcus pyogenes): ≤ 0.05 µg/mL
MIC (Streptococcus pneumoniae [8]): ≤ 0.05 µg/mL
MIC (Streptococcus pneumoniae [9]): ≤ 0.05 µg/mL
MIC (Streptococcus pneumoniae [10]): ≤ 0.05 µg/mL
MIC (Streptococcus pneumoniae [11]): 3.13 µg/mL (≈ 3.73 µM)
MIC (Streptococcus pneumoniae [12]): 0.78 µg/mL (≈ 0.93 µM)
MIC (Streptococcus pneumoniae [13]): 0.2 µg/mL (≈ 0.238 µM)
MIC (Haemophilus influenzae [14]): 3.13 µg/mL (≈ 3.73 µM)

C=C[C@]12OC(=O)N(CCCCn3ccc4ncccc43)[C@@H]1[C@@H](C)C(=O)[C@H](C)C[C@@](C)(OC)[C@H](O[C@@H]1O[C@H](C)C[C@H](N(C)C)[C@H]1O)[C@@H](C)C(=O)[C@@H](C)C(=O)O[C@@H]2CC
MIC (Haemophilus influenzae [1]): 1.56 µg/mL (≈ 1.96 µM)
MIC (Staphylococcus aureus [2]): 0.1 µg/mL (≈ 0.125 µM)
MIC (Staphylococcus aureus [3]): > 50 µg/mL
MIC [4]: 0.1 µg/mL (≈ 0.125 µM)
MIC [5]: 0.1 µg/mL (≈ 0.125 µM)
MIC (Enterococcus faecalis [6]): 0.1 µg/mL (≈ 0.125 µM)
MIC (Enterococcus faecalis [7]): 3.13 µg/mL (≈ 3.93 µM)
MIC (Streptococcus pyogenes): ≤ 0.05 µg/mL
MIC (Streptococcus pneumoniae [8]): ≤ 0.05 µg/mL
MIC (Streptococcus pneumoniae [9]): ≤ 0.05 µg/mL
MIC (Streptococcus pneumoniae [10]): ≤ 0.05 µg/mL
MIC (Streptococcus pneumoniae [11]): 6.25 µg/mL (≈ 7.84 µM)
MIC (Streptococcus pneumoniae [12]): 0.4 µg/mL (≈ 0.502 µM)
MIC (Streptococcus pneumoniae [13]): 0.1 µg/mL (≈ 0.125 µM)
MIC (Haemophilus influenzae [14]): 6.25 µg/mL (≈ 7.84 µM)

CC[C@H]1OC(=O)[C@H](C)[C@@H](O[C@H]2C[C@@](C)(OC)[C@@H](O)[C@H](C)O2)[C@H](C)[C@@H](O[C@@H]2O[C@H](C)C[C@H](N(C)C)[C@H]2O)[C@](C)(OC)C[C@@H](C)C(=O)[C@H](C)[C@@H](O)[C@]1(C)O [CLARITHROMYCIN]
MIC (Haemophilus influenzae [1]): 0.78 µg/mL (≈ 1.04 µM)
MIC (Staphylococcus aureus [2]): 0.4 µg/mL (≈ 0.535 µM)
MIC (Staphylococcus aureus [3]): > 50 µg/mL
MIC [4]: 0.2 µg/mL (≈ 0.267 µM)
MIC [5]: 0.2 µg/mL (≈ 0.267 µM)
MIC (Enterococcus faecalis [6]): 0.78 µg/mL (≈ 1.04 µM)
MIC (Enterococcus faecalis [7]): > 50 µg/mL
MIC (Streptococcus pyogenes): ≤ 0.05 µg/mL
MIC (Streptococcus pneumoniae [8]): ≤ 0.05 µg/mL
MIC (Streptococcus pneumoniae [9]): ≤ 0.05 µg/mL
MIC (Streptococcus pneumoniae [10]): ≤ 0.05 µg/mL
MIC (Streptococcus pneumoniae [11]): > 50 µg/mL
MIC (Streptococcus pneumoniae [12]): 6.25 µg/mL (≈ 8.36 µM)
MIC (Streptococcus pneumoniae [13]): 3.13 µg/mL (≈ 4.18 µM)
MIC (Haemophilus influenzae [14]): 6.25 µg/mL (≈ 8.36 µM)

C=C[C@]12OC(=O)N(CCCC(C)(C)n3cnc4ncccc43)[C@@H]1[C@@H](C)C(=O)[C@H](C)C[C@@](C)(OC)[C@H](O[C@@H]1O[C@H](C)C[C@H](N(C)C)[C@H]1O)[C@@H](C)C(=O)[C@@H](C)C(=O)O[C@@H]2CC
MIC (Haemophilus influenzae [1]): 0.78 µg/mL (≈ 0.944 µM)
MIC (Staphylococcus aureus [2]): 0.2 µg/mL (≈ 0.242 µM)
MIC (Staphylococcus aureus [3]): > 50 µg/mL
MIC [4]: 0.2 µg/mL (≈ 0.242 µM)
MIC [5]: 0.1 µg/mL (≈ 0.121 µM)
MIC (Enterococcus faecalis [6]): 0.1 µg/mL (≈ 0.121 µM)
MIC (Enterococcus faecalis [7]): 0.4 µg/mL (≈ 0.484 µM)
MIC (Streptococcus pyogenes): ≤ 0.05 µg/mL
MIC (Streptococcus pneumoniae [8]): ≤ 0.05 µg/mL
MIC (Streptococcus pneumoniae [9]): ≤ 0.05 µg/mL
MIC (Streptococcus pneumoniae [10]): ≤ 0.05 µg/mL
MIC (Streptococcus pneumoniae [11]): 0.1 µg/mL (≈ 0.121 µM)
MIC (Streptococcus pneumoniae [12]): 0.78 µg/mL (≈ 0.944 µM)
MIC (Streptococcus pneumoniae [13]): 0.2 µg/mL (≈ 0.242 µM)
MIC (Haemophilus influenzae [14]): 6.25 µg/mL (≈ 7.57 µM)
